Laboratory results published in PubChem BioAssay (NCI).
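Tested at 5 concentrations; 48 h exposure; 96-well plates; endpoints linearly interpolated, else capped at highest concentration. TGI: concentration producing complete growth inhibition.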

Key:
Assay in all cases: NCI tumour cell line growth inhibition, 48 h
[1] = test system: SN12C renal
[2] = test system: SNB-75 CNS
[3] = test system: SF-268 CNS
[4] = test system: HCT-15 colon
[5] = test system: MDA-MB-231 breast
[6] = test system: T-47D breast
[7] = test system: OVCAR-8 ovarian
[8] = test system: HS 578T breast
[9] = test system: NCI-H460 lung
[10] = test system: OVCAR-3 ovarian
[11] = test system: HT29 colon
[12] = test system: ACHN renal
[13] = test system: HOP-62 NSCLC
[14] = test system: SK-MEL-28 melanoma
[15] = test system: NCI-H23 lung
[16] = test system: KM12 colon
[17] = test system: MDA-MB-435
[18] = test system: HCT-116 colon
[19] = test system: NCI-H522 lung
[20] = test system: LOX IMVI melanoma
[21] = test system: MCF7 breast
[22] = test system: CCRF-CEM leukemia
[23] = test system: TK-10 renal
[24] = test system: SK-MEL-2 melanoma
[25] = test system: OVCAR-4 ovarian
[26] = test system: A498 renal
[27] = test system: 786-0 renal
[28] = test system: HOP-92 NSCLC
[29] = test system: PC-3 prostate
[30] = test system: UACC-257 melanoma
[31] = test system: UO-31 renal
[32] = test system: CAKI-1 renal
[33] = test system: MALME-3M melanoma
[34] = test system: M14 melanoma
[35] = test system: SR leukemia
[36] = test system: EKVX NSCLC
[37] = test system: DU-145 prostate
[38] = test system: NCI/ADR-RES ovarian
[39] = test system: SF-295 CNS
[40] = test system: RPMI-8226 leukemia
[41] = test system: IGROV1 ovarian
[42] = test system: HL-60(TB) leukemia
[43] = test system: K-562 leukemia
[44] = test system: MDA-N
[45] = test system: OVCAR-5 ovarian
[46] = test system: U251 CNS
[47] = test system: HCC-2998 colon
[48] = test system: MOLT-4 leukemia
[49] = test system: SNB-19 CNS
[50] = test system: SW-620 colon
[51] = test system: COLO 205 colon
[52] = test system: SF-539 CNS
[53] = test system: A549 NSCLC
[54] = test system: SK-MEL-5 melanoma
[55] = test system: BT-549 breast
[56] = test system: RXF 393 renal
[57] = test system: NCI-H226 lung
[58] = test system: SK-OV-3 ovarian
[59] = test system: UACC-62 melanoma

Compound: COc1ccc(OCc2ccc3nc(-c4ccccc4)c(Cl)nc3c2)cc1
- TGI [1]: > 100 µM
- TGI [2]: > 100 µM
- TGI [3]: > 100 µM
- TGI [4]: > 100 µM
- TGI [5]: 37.9 µM
- TGI [6]: > 100 µM
- TGI [7]: > 100 µM
- TGI [8]: > 100 µM
- TGI [9]: > 100 µM
- TGI [10]: > 100 µM
- TGI [11]: > 100 µM
- TGI [12]: > 100 µM
- TGI [13]: 28.6 µM
- TGI [14]: > 100 µM
- TGI [15]: 67.9 µM
- TGI [16]: > 100 µM
- TGI [17]: > 100 µM
- TGI [18]: > 100 µM
- TGI [19]: 40.5 µM
- TGI [20]: > 100 µM
- TGI [21]: > 100 µM
- TGI [22]: 45.4 µM
- TGI [23]: 55.3 µM
- TGI [24]: > 100 µM
- TGI [25]: 95.4 µM
- TGI [26]: 81.2 µM
- TGI [27]: 32.6 µM
- TGI [28]: 46.7 µM
- TGI [29]: > 100 µM
- TGI [30]: > 100 µM
- TGI [31]: > 100 µM
- TGI [32]: 51.4 µM
- TGI [33]: 37.3 µM
- TGI [34]: > 100 µM
- TGI [35]: > 100 µM
- TGI [36]: > 100 µM
- TGI [37]: > 100 µM
- TGI [38]: > 100 µM
- TGI [39]: 62.1 µM
- TGI [40]: > 100 µM
- TGI [41]: > 100 µM
- TGI [42]: 45.9 µM
- TGI [43]: > 100 µM
- TGI [44]: > 100 µM
- TGI [45]: > 100 µM
- TGI [46]: 31.6 µM
- TGI [47]: > 100 µM
- TGI [48]: > 100 µM
- TGI [49]: 68.2 µM
- TGI [50]: > 100 µM
- TGI [51]: 81.5 µM
- TGI [52]: 42.3 µM
- TGI [53]: > 100 µM
- TGI [54]: 25.8 µM

Compound: COC(=O)C(=O)C(C(=O)C(=O)Nc1nc2ccc(C)cc2s1)c1nc2ccc([N+](=O)[O-])cc2[nH]c1=O (stereo not given)
- TGI [1]: > 100 µM
- TGI [2]: > 100 µM
- TGI [3]: > 100 µM
- TGI [55]: > 100 µM
- TGI [4]: > 100 µM
- TGI [5]: > 100 µM
- TGI [6]: > 100 µM
- TGI [7]: > 100 µM
- TGI [8]: > 100 µM
- TGI [9]: > 100 µM
- TGI [10]: > 100 µM
- TGI [11]: > 100 µM
- TGI [12]: > 100 µM
- TGI [13]: > 100 µM
- TGI [14]: > 100 µM
- TGI [15]: > 100 µM
- TGI [16]: > 100 µM
- TGI [17]: > 100 µM
- TGI [18]: > 100 µM
- TGI [19]: > 100 µM
- TGI [20]: > 100 µM
- TGI [21]: > 100 µM
- TGI [22]: > 100 µM
- TGI [23]: > 100 µM
- TGI [24]: > 100 µM
- TGI [26]: > 100 µM
- TGI [27]: > 100 µM
- TGI [28]: > 100 µM
- TGI [29]: > 100 µM
- TGI [30]: > 100 µM
- TGI [31]: > 100 µM
- TGI [32]: > 100 µM
- TGI [56]: > 100 µM
- TGI [33]: > 100 µM
- TGI [34]: > 100 µM
- TGI [35]: > 100 µM
- TGI [36]: > 100 µM
- TGI [38]: > 100 µM
- TGI [39]: > 100 µM
- TGI [40]: > 100 µM
- TGI [41]: > 100 µM
- TGI [42]: > 100 µM
- TGI [57]: > 100 µM
- TGI [43]: > 100 µM
- TGI [44]: > 100 µM
- TGI [45]: > 100 µM
- TGI [46]: > 100 µM
- TGI [58]: > 100 µM
- TGI [59]: > 100 µM
- TGI [47]: > 100 µM
- TGI [49]: > 100 µM
- TGI [50]: > 100 µM
- TGI [52]: > 100 µM
- TGI [53]: > 100 µM
- TGI [54]: > 100 µM

Compound: Cc1ncc2c(=O)c3c(oc2n1)c1ccccc1n3Cc1ccccc1
- TGI [1]: > 100 µM
- TGI [2]: > 100 µM
- TGI [3]: > 100 µM
- TGI [55]: > 100 µM
- TGI [4]: > 100 µM
- TGI [5]: > 100 µM
- TGI [6]: > 100 µM
- TGI [7]: > 100 µM
- TGI [8]: > 100 µM
- TGI [9]: > 100 µM
- TGI [10]: > 100 µM
- TGI [11]: > 100 µM
- TGI [12]: > 100 µM
- TGI [13]: 79.5 µM
- TGI [14]: > 100 µM
- TGI [15]: > 100 µM
- TGI [16]: > 100 µM
- TGI [17]: > 100 µM
- TGI [18]: > 100 µM
- TGI [19]: > 100 µM
- TGI [20]: > 100 µM
- TGI [21]: > 100 µM
- TGI [22]: > 100 µM
- TGI [23]: > 100 µM
- TGI [27]: > 100 µM
- TGI [29]: > 100 µM
- TGI [30]: > 100 µM
- TGI [31]: > 100 µM
- TGI [32]: > 100 µM
- TGI [56]: > 100 µM
- TGI [33]: > 100 µM
- TGI [35]: > 100 µM
- TGI [36]: > 100 µM
- TGI [37]: > 100 µM
- TGI [38]: > 100 µM
- TGI [39]: > 100 µM
- TGI [40]: > 100 µM
- TGI [41]: > 100 µM
- TGI [42]: > 100 µM
- TGI [57]: > 100 µM
- TGI [43]: > 100 µM
- TGI [44]: > 100 µM
- TGI [45]: > 100 µM
- TGI [46]: > 100 µM
- TGI [59]: 93.9 µM
- TGI [47]: > 100 µM
- TGI [48]: > 100 µM
- TGI [49]: > 100 µM
- TGI [50]: > 100 µM
- TGI [51]: > 100 µM
- TGI [52]: > 100 µM
- TGI [53]: > 100 µM
- TGI [54]: > 100 µM

Compound: CC(NC(=O)C(N)CC(=O)O)NC(=O)C1CCC1 (stereo not given)
- TGI [1]: > 100 µM
- TGI [2]: > 100 µM
- TGI [3]: > 100 µM
- TGI [55]: > 100 µM
- TGI [4]: > 100 µM
- TGI [5]: > 100 µM
- TGI [6]: > 100 µM
- TGI [7]: > 100 µM
- TGI [8]: > 100 µM
- TGI [9]: > 100 µM
- TGI [10]: > 100 µM
- TGI [11]: > 100 µM
- TGI [12]: > 100 µM
- TGI [13]: > 100 µM
- TGI [14]: > 100 µM
- TGI [15]: > 100 µM
- TGI [16]: > 100 µM
- TGI [17]: > 100 µM
- TGI [18]: > 100 µM
- TGI [19]: > 100 µM
- TGI [20]: > 100 µM
- TGI [21]: > 100 µM
- TGI [22]: > 100 µM
- TGI [23]: > 100 µM
- TGI [24]: > 100 µM
- TGI [25]: > 100 µM
- TGI [26]: > 100 µM
- TGI [27]: > 100 µM
- TGI [29]: > 100 µM
- TGI [30]: > 100 µM
- TGI [31]: > 100 µM
- TGI [32]: > 100 µM
- TGI [56]: > 100 µM
- TGI [33]: > 100 µM
- TGI [34]: > 100 µM
- TGI [36]: > 100 µM
- TGI [37]: > 100 µM
- TGI [38]: > 100 µM
- TGI [40]: > 100 µM
- TGI [57]: > 100 µM
- TGI [43]: > 100 µM
- TGI [44]: > 100 µM
- TGI [45]: > 100 µM
- TGI [46]: > 100 µM
- TGI [58]: > 100 µM
- TGI [59]: > 100 µM
- TGI [48]: > 100 µM
- TGI [49]: > 100 µM
- TGI [50]: > 100 µM
- TGI [51]: > 100 µM
- TGI [52]: > 100 µM
- TGI [53]: > 100 µM
- TGI [54]: > 100 µM
